Where “and” joins values, the source holds several entries; their conditions need not be identical. Equal values may be shown once. Entries after “also recorded” stand apart in the source; their conditions may differ.
What was measured:
[1] = system: HT29 cells; assay: HT29 cell viability assay (CellTiter-Blue); assay type: cell-based, human; conditions: for anti-proliferative activity in screen of PLK-1 siRNA panel: HT29 cells, 1, 5, 25 nM, 72 h; for cell viability / killing of human tumor cells: HT29 cells, SNALP-formulated siRNA at a range of siRNA concentrations, viability at 72 h relative to PBS
Procedure: Various PLK-1 siRNAs were formulated as SNALP (“2:40” SNALP formulation: 2% PEG-cDMA; 40% DLinDMA; 10% DSPC; and 48% cholesterol) and evaluated for their inhibitory effects on cell growth in vitro. HT29 (human colon adenocarcinoma) or Neuro2A (mouse neuroblastoma) cells were treated with various PLK-1 SNALP at a range of siRNA concentrations and their effect on cell viability was evaluated. Viability of cell cultures is expressed as % viability relative to PBS treated controls.
Additional PLK-1 siRNA molecules were formulated as SNALP (“2:40” SNALP formulation: 2% PEG-cDMA; 40% DLinDMA; 10% DSPC; and 48% cholesterol) and evaluated for their inhibitory effects on cell growth in vitro. HT29 or Neuro2A cells were plated in triplicate at 5000 cells/well and 2500 cells/well, respectively. PLK-1 SNALP dosages were as follows: 25 nM; 5 nM; and 1 nM. Cell viability analysis was performed at 72 hours following transfection. SNALP containing a non-targeting (GFP) siRNA were used as a negative control. […]
PLK-1 siRNA molecules containing 2′-O-methyl (2′OMe) nucleotides at selective positions within the double-stranded region of the siRNA duplex were formulated as SNALP (“2:40” SNALP formulation: 2% PEG-cDMA; 40% DLinDMA; 10% DSPC; and 48% cholesterol) and evaluated for their inhibitory effects on cell growth in vitro. HT29 cells were plated in triplicate at 5000 cells/well. Cell viability analysis was performed at 72 hours following transfection with a range of PLK-1 SNALP dosages. SNALP containing a non-targeting (GFP) siRNA were used as a negative control.
Cell viability assays. […] Cell viability analysis was performed at 72 hours following transfection with a range of PLK-1 SNALP dosages.

[2] = system: human PLK-1 mRNA; assay: PLK-1 mRNA in Hep3B tumors (QuantiGene bDNA assay); assay type: in vivo; conditions: hepatic Hep3B tumors, single 2 mg/kg IV, 24 h
Procedure: The objectives of this study were as follows: • 1. To determine the level of mRNA silencing in established Hep3B liver tumors following a single IV administration of PLK1424 SNALP. • 2. To confirm the mechanism of mRNA silencing by detecting specific RNA cleavage products using RACE-PCR. • 3. To confirm induction of tumor cell apoptosis by histopathology.
A comparison of the effect of PEG-cDMA and PEG-cDSA 1:57 SNALPs on PLK-1 mRNA silencing was performed using established intrahepatic Hep3B tumors in scid/beige mice. A single 2 mg/kg dose of PLK-1 SNALP containing either PEG-cDMA or PEG-cDSA was administered intravenously. Liver/tumor samples were collected at 24 and 96 hours after SNALP treatment. Control=2 mg/kg Luc-cDMA SNALP at 24 hours.
Measurement of human PLK-1 and GAPDH mRNA in tumor tissues. […] Human PLK-1 and GAPDH mRNA were measured in tumor lystes by the QuantiGene bDNA assay (Panomics) as per the manufacturer's instructions (Quantigene 1.0 Manual). […] Data were expressed as mean PLK-1:GAPDH ratio+/−SD of individual animals. Tumor burden was assessed by homogenizing the complete liver from tumor bearing mice and measuring the total hGAPDH signal (RLU's) within the liver. Values were expressed as hGAPDH RLU/mg total liver.
Subcutaneous tumor models. […] The extent of PLK-1 mRNA knockdown was determined in the Hep3B tumors about 24 hours after SNALP administration.

[3] = system: human PLK-1 mRNA; assay: 5′ RACE-PCR in HT29 cells; assay type: cell-based; conditions: 10 nM, 24 h
Procedure: (A) HT29 cells were treated with 10 nM SNALP-formulated PLK1424, Luc siRNA or PBS. RNA was isolated 24 hours after transfection and assayed for the specific PLK-1 mRNA cleavage product by 5′-RACE-PCR. (B) Neuro2a cells were treated with SNALP-formulated KSP2263, PLK773 siRNA or PBS. RNA was isolated 24 hours after transfection and assayed for the specific mouse KSP mRNA cleavage product by 5′-RACE-PCR.
The detection of specific RNA cleavage products generated by RISC-mediated hydrolysis of target mRNA is the definitive marker confirming RNAi as the mechanism of gene silencing (39, 40). Activated RISC cleaves target mRNA precisely between the nucleotides complementary to positions 10 and 11 of the siRNA AS strand generating an mRNA cleavage product that is unique to the siRNA sequence. This can be detected in cells using an appropriately designed 5′-rapid amplification of cDNA ends-PCR method (RACE-PCR). We developed RACE-PCR assays to detect the PLK1424-specific cleavage product of human PLK-1 mRNA and the KSP2263-specific cleavage product of mouse KSP mRNA.
5′ RNA Ligase Mediated Rapid Amplification of cDNA ends (5′ RLM RACE).

[4] = system: IFN-α, IFIT1 mRNA; assay: In vivo immune stimulation assay in CD1 ICR mice (plasma IFN-α, IFIT1 mRNA); set-up: species or system mouse; conditions: 1:57 PEG-cDMA SNALP, 3 mg/kg IV, 4 h
Procedure: In vivo immune stimulation assays. Animal studies were performed to test for the immunostimulatory activity of SNALP containing 2′OMe-modified PLK1424 siRNAs. Six-week-old female CD1 ICR mice were used in this study. […] The tolerability of the treatment regime was monitored by animal appearance and behavior.

[5] = system: IFIT1 mRNA, serum IFNα; assay: In vivo immune stimulation assay in Balb/c mice (IFIT1 mRNA, serum IFNα); conditions: SNALP-formulated siRNA IV, 4 h
[6] = SNALP particle size and polydispersity; assay type: physicochemical
[7] = system: Hep3B cells; conditions: SNALP-formulated siRNA, 72 h
Procedure: Cell Viability Assay: Cell viability of in vitro cell cultures was assessed using the commercial reagent CellTiter-Blue® (Promega Corp.; Madison, Wis.), a resazurin dye that is reduced by metabolically active cells to the fluorogenic product resorufin. Various cancer cell lines were cultured in vitro using standard tissue culture techniques. 48-72 hours after treatment with siRNA formulations and/or chemotherapy drugs, the CellTiter-Blue® reagent was added to the culture to quantify the metabolic activity of the cells, which is a measure of cell viability.
Cell Cultures. The cell lines Hep3B, HepG2, HT29, LS174T, and Neuro2a cells were obtained from the American Type Culture Collection (ATCC; Manassas, Va.) and cultured in the recommended basal media with 10% heat inactivated FBS and 1% penicillin-streptomycin. […] For in vitro siRNA activity assays, cell lines were cultured in 96 well plates in the presence of SNALP formulated siRNA. Cell viability was assessed after 72 h using the resazurin dye CellTiter Blue (Promega Corp).

| Substance | anti-proliferative activity in screen of PLK-1 siRNA panel [1] | cell viability / killing of human tumor cells [1] | tumor hPLK-1 mRNA, % of levels in PBS-treated mice [2] [%] | PLK-1 mRNA cleavage product by 5′ RACE-PCR [3] | IFIT1 induction (QG analysis) [4] | IFIT1 mRNA induction in liver and spleen [5] | mean SNALP particle size [6] | cell viability / anti-proliferative activity [7] |
| --- | --- | --- | --- | --- | --- | --- | --- | --- |
| PLK773: siRNA to human PLK-1, SEQ ID NO:3/4 (UU overhang form 218/219) (chain 1 AGACCUACCUCCGGAUCAA; chain 2 UUGAUCCGGAGGUAGGUCU; RNA, backbone not given here) | most potent mouse, rat, and human cross-reactive siRNA | effective at killing human tumor cells; also recorded: inhibiting cell growth; also recorded: dose-dependent decrease in cell viability | – | – | – | – | – | – |
| PLK1424-2/A: 2′OMe-modified PLK1424 duplex, SEQ ID NO:214/215 (same SEQ IDs as PLK1424 1/3 of Table 11) (chain 1 AGANCACCCNCCUNAAANAUU; chain 2 UAUUUAANGAGGGUGANCUUU; siRNA; 2'-O-methyl modifications at selected positions, key for n not given here) | – | – | 45 | generated the predicted 476 bp 5′ RACE-PCR product | no significant IFIT1 induction above that of empty SNALP | no measurable IFNα or increase in IFIT1 mRNA in the liver or spleen | – | – |
| PLK1424: siRNA to human PLK-1, SEQ ID NO:1/2 (UU overhang form 211/212) (chain 1 AGAUCACCCUCCUUAAAUA; chain 2 UAUUUAAGGAGGGUGAUCU; further chemistry not given here) | most potent human siRNA | highly potent at killing human tumor cells; also recorded: most potent effects; also recorded: inhibiting cell growth; also recorded: dose-dependent decrease in cell viability | – | – | – | – | 83 nm and 72 nm | potent activity |

From patent US9006191B2, “Silencing of polo-like kinase expression using interfering RNA” (Protiva Biotherapeutics, Inc., priority 2007, dated 2015)
